Measured values taken from patent US9029384B2, “Phosphatidylinositol 3-kinase inhibitors” (Gilead Calistoga LLC, priority 2012, dated 2015).

What was measured:
PI3Kδ = molecular target: T1, PI3Kδ (Homo sapiens, UniProt O00329); test: Enzymatic activity of PI3K isoforms, TR-FRET assay (PIP3 formation); format: biochemical; details: PI3Kδ; TR-FRET, 2×Km ATP, 10 μM PIP2; read-out: IC50
T1 construct: made in house
Description: Enzymatic Activity of PI3K Isoforms
The TR-FRET assay was used to monitor formation of the product 3,4,5-inositol triphosphate molecule (PIP3) as it competed with fluorescently labeled PIP3 for binding to the GRP-1 pleckstrin homology domain protein. An increase in […] product results in a decrease in TR-FRET signal as the labeled fluorophore is displaced from the GRP-1 protein binding site.
Class I PI3K isoforms were expressed and purified as heterodimeric recombinant proteins. All assay reagents and buffers for the TR-FRET assay were purchased from Millipore. […] After an assay reaction time of 30 minutes at 25° C., reactions were terminated with a final concentration of 10 mM EDTA, 10 nM labeled-PIP3, and 35 nM Europium labeled GRP-1 detector protein before reading TR-FRET on an Envision plate reader (Ex: 340 nm; Em: 615/665 nm; 100 μs delay and 500 μs read window).
Data are normalized based on a positive (1 uM wortmanin) and negative (DMSO) controls. The α, β, δ, and γ IC50 values were calculated from the fit of the dose-response curves to a four-parameter equation. IC50 are reported in units of nM.
IC50 values were obtained for all PI3K isoforms (α, β, δ, and γ), and Table 2 summarizes the IC50 data collected for PI3Kδ in this Example B1.

basophils = test: Basophil activation in human whole blood (Flow2 CAST kit, CD63 positive cells); format: cell-based; details: basophils activated with anti-FcεRI mAb or fMLP, geometric mean
Procedure: Effect on basophil activation was measured in human whole blood using the Flow2 CAST® kit (Buhlmann Laboratories AG, Baselstrasse, Switzerland) following the protocol provided by the manufacturer with minor modifications. Human whole blood was collected into K2-EDTA venipuncture tubes. Whole blood samples were treated with either DMSO (0.3% final) or a serial dilution of compounds in DMSO for 60 minutes at 37° C. Basophils were then activated either with anti-FcεRI mAb or with fMLP. To activate basophils using the anti-FcεRI mAb; 50 μl of whole blood was mixed with 110 μl of stimulation buffer (B-BAT-STB) and 20 μl of anti-FcεRI (B-BAT-STCON). To activate basophils with fMLP; 50 μl of whole blood was mixed with 80 μl of stimulation buffer (B-BAT-STB) and 50 μl of fMLP (B-CCR-FMLP). Stimulation buffer was used as a negative control. 20 μl of the staining reagent (combination of anti-human CD63-FITC and anti-human CCR3-PE mAbs) was then added to each tube. […] Subsequently, erythrocytes were lysed and fixed by the addition of 2 ml of lysing solution (B-BAT-LYR) for 10 min at room temperature. Cells were pelleted by centrifugation at 1200 rpm for 10 min at room temperature in a swing-out rotor. Supernatant was aspirated and cell pellet resuspended in 400 μl of wash buffer. Flow cytometric analysis of the basophil activation was performed on a FC500MPL flow cytometer (Beckman Coulter Inc., Fullerton, Calif.). CCR3-staining and side scatter were applied to gate at least 200 basophils that expressed a high density of CCR3. The percent CD63 positive cells within the gated basophil population were determined in different treatment groups and normalized to the vehicle control (0.3% DMSO) with anti-FcεRI mAb of fMLP stimulus as 100%. Final compound concentration was adjusted to correct for dilution effect of added reagents. The EC50 values were calculated from the analysis of the dose-response curves to a four-parameter equation. All EC50 values represent geometric mean values and are reported in units of nM.

T1 sequence (O00329 whole entry, canonical isoform): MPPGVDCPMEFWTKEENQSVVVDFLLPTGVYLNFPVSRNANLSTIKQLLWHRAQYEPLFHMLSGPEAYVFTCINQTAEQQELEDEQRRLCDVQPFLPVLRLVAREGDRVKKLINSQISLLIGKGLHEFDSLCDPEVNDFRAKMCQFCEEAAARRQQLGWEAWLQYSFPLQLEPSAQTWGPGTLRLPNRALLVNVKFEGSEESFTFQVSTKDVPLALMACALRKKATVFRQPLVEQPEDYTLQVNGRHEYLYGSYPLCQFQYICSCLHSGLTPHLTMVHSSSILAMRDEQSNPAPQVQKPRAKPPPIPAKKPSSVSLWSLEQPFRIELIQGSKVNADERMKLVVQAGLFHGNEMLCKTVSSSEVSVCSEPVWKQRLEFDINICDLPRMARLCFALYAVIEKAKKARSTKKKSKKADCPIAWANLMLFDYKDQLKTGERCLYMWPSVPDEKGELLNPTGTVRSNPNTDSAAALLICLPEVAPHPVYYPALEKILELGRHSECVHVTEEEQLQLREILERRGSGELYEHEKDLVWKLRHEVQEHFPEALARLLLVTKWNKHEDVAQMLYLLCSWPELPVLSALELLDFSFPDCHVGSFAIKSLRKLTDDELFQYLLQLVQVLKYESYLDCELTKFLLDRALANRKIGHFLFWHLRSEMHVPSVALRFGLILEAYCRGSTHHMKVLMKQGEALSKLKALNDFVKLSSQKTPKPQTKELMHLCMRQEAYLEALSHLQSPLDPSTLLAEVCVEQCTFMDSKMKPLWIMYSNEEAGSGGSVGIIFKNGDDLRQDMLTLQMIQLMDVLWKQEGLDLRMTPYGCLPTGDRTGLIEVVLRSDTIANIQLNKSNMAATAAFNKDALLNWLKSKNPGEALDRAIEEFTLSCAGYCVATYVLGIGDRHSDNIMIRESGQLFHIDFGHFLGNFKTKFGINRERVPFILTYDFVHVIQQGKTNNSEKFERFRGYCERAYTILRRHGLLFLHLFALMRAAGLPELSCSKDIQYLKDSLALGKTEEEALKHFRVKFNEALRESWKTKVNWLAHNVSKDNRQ
T1 sequence (P27986 whole entry partner, canonical isoform): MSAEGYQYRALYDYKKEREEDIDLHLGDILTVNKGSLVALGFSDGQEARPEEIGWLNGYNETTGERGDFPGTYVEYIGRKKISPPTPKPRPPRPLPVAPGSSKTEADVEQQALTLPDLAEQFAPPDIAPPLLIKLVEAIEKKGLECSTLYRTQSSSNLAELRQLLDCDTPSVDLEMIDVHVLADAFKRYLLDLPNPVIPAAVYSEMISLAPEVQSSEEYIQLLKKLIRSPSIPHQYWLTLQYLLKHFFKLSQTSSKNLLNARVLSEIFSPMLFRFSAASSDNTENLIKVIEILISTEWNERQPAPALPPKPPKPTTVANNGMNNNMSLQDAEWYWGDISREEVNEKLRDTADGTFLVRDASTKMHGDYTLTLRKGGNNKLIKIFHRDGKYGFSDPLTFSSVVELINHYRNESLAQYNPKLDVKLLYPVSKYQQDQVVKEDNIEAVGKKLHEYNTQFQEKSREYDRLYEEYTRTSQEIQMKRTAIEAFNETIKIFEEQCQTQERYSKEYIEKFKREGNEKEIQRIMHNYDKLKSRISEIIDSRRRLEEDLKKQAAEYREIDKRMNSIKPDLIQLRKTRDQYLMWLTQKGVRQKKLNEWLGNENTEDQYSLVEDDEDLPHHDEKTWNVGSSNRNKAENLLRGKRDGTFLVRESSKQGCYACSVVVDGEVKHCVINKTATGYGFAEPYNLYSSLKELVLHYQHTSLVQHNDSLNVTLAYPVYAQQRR

Cc1cccc2c(=O)n(-c3cccc(Cl)c3)c(C(C)Nc3nc(N)nc(N)c3C#N)nc12 (single isomer, unassigned) [Compound 6a]
IC50 (PI3Kδ): < 1 nM
EC50 (basophils; Homo sapiens): > 50 nM

CC(Nc1nc(N)nc(N)c1C#N)c1nc2cccc(C#N)c2c(=O)n1-c1ccccc1 (single isomer, unassigned) [Compound 7a]
IC50 (PI3Kδ): 1 to 10 nM
EC50 (basophils; Homo sapiens): < 1 nM

CC(Nc1nc(N)nc(N)c1C#N)c1nc2ccc(F)cc2c(=O)n1-c1ccccc1 (single isomer, unassigned) [Compound 9a]
IC50 (PI3Kδ): 1 to 10 nM
EC50 (basophils; Homo sapiens): 1 to 10 nM

CC(Nc1nc(N)nc(N)c1C#N)c1nc2ccc(F)cc2c(=O)n1-c1cccc(Cl)c1 (single isomer, unassigned) [Compound 14a]
IC50 (PI3Kδ): 1 to 10 nM
EC50 (basophils; Homo sapiens): 1 to 10 nM

Cc1cccc2nc(C(C)Nc3nc(N)nc(N)c3C#N)n(-c3ccccc3)c(=O)c12 (single isomer, unassigned) [Compound 23a]
IC50 (PI3Kδ): < 1 nM
EC50 (basophils; Homo sapiens): < 1 nM

CC(Nc1nc(N)nc(N)c1C#N)c1nc2cccc(Cl)c2c(=O)n1-c1cc(F)cc(C(F)(F)F)c1 (single isomer, unassigned) [Compound 45a]
IC50 (PI3Kδ): 1 to 10 nM
EC50 (basophils; Homo sapiens): > 50 nM

CC(Nc1nc(N)nc(N)c1C#N)c1nc2c(F)cccc2c(=O)n1-c1ccccc1 (single isomer, unassigned) [Compound 58a]
IC50 (PI3Kδ): 1 to 10 nM
EC50 (basophils; Homo sapiens): 1 to 10 nM

CC(Nc1nc(N)nc(N)c1C#N)c1nc2c(F)ccc(F)c2c(=O)n1-c1ccccc1 (single isomer, unassigned) [Compound 59a]
IC50 (PI3Kδ): < 1 nM
EC50 (basophils; Homo sapiens): 1 to 10 nM

Cc1ccc(F)c2nc(C(C)Nc3nc(N)nc(N)c3C#N)n(-c3ccccc3)c(=O)c12 (single isomer, unassigned) [Compound 60a]
IC50 (PI3Kδ): < 1 nM
EC50 (basophils; Homo sapiens): < 1 nM

CC(Nc1nc(N)nc(N)c1C#N)c1nc2cccc(C(F)F)c2c(=O)n1-c1ccccc1 (single isomer, unassigned) [Compound 62a]
IC50 (PI3Kδ): < 1 nM
EC50 (basophils; Homo sapiens): < 1 nM

Cc1ccc(F)c2nc(C(C)Nc3nc(N)nc(N)c3C#N)n(-c3cccc(C#N)c3)c(=O)c12 (single isomer, unassigned) [Compound 64a]
IC50 (PI3Kδ): < 1 nM
EC50 (basophils; Homo sapiens): 1 to 10 nM

CC(Nc1nc(N)nc(N)c1C#N)c1nc2c(F)cc(F)cc2c(=O)n1-c1cc(F)cc(F)c1 (single isomer, unassigned) [Compound 70a]
IC50 (PI3Kδ): 10 to 50 nM
EC50 (basophils; Homo sapiens): 1 to 10 nM

CC(Nc1nc(N)nc(N)c1C#N)c1nc2cccc(F)c2c(=O)n1-c1ccccc1 (single isomer, unassigned) [Compound 81a]
IC50 (PI3Kδ): 1 to 10 nM
EC50 (basophils; Homo sapiens): < 1 nM

CC(Nc1nc(N)nc(N)c1C#N)c1nc2cccc(C(N)=O)c2c(=O)n1-c1ccccc1 (single isomer, unassigned) [Compound 92a]
IC50 (PI3Kδ): 1 to 10 nM
EC50 (basophils; Homo sapiens): > 50 nM

CC(Nc1nc(N)nc(N)c1C#N)c1nc2cccc(S(C)(=O)=O)c2c(=O)n1-c1ccccc1 (single isomer, unassigned) [Compound 95a]
IC50 (PI3Kδ): 1 to 10 nM
EC50 (basophils; Homo sapiens): 10 to 50 nM

CC(Nc1nc(N)nc(N)c1C#N)c1nc2cccc(S(C)(=O)=O)c2c(=O)n1-c1cc(F)cc(F)c1 (single isomer, unassigned) [Compound 96a]
IC50 (PI3Kδ): 1 to 10 nM
EC50 (basophils; Homo sapiens): 10 to 50 nM

COc1cccc2nc(C(C)Nc3nc(N)nc(N)c3C#N)n(-c3ccccc3)c(=O)c12 (single isomer, unassigned) [Compound 111a]
IC50 (PI3Kδ): 10 to 50 nM
EC50 (basophils; Homo sapiens): > 50 nM

CC(Nc1nc(N)nc(N)c1C#N)c1nc2cccc(Cl)c2c(=O)n1-c1cc(Cl)cc(C(F)F)c1 (single isomer, unassigned) [Compound 115a]
IC50 (PI3Kδ): 1 to 10 nM
EC50 (basophils; Homo sapiens): 10 to 50 nM

CC(Nc1nc(N)nc(N)c1C#N)c1nc2cccc(S(C)(=O)=O)c2c(=O)n1-c1cccc(C(F)F)c1 (single isomer, unassigned) [Compound 116a]
IC50 (PI3Kδ): 1 to 10 nM
EC50 (basophils; Homo sapiens): > 50 nM

CC(Nc1nc(N)nc(N)c1C#N)c1nc2cccc(S(C)(=O)=O)c2c(=O)n1-c1cccc(F)c1 (single isomer, unassigned) [Compound 117a]
IC50 (PI3Kδ): 1 to 10 nM
EC50 (basophils; Homo sapiens): 10 to 50 nM

CC(Nc1nc(N)nc(N)c1C#N)c1nc2cccc(Cl)c2c(=O)n1-c1cc(C(F)F)cc(C(F)F)c1 (single isomer, unassigned) [Compound 119a]
IC50 (PI3Kδ): 1 to 10 nM
EC50 (basophils; Homo sapiens): 10 to 50 nM

CC(Nc1nc(N)nc(N)c1C#N)c1nc2c(F)ccc(C#N)c2c(=O)n1-c1ccccc1 (single isomer, unassigned) [Compound 124a]
IC50 (PI3Kδ): 1 to 10 nM
EC50 (basophils; Homo sapiens): 1 to 10 nM

CC(Nc1nc(N)nc(N)c1C#N)c1nc2c(F)ccc(C#N)c2c(=O)n1-c1cc(F)cc(F)c1 (single isomer, unassigned) [Compound 125a]
IC50 (PI3Kδ): 10 to 50 nM
EC50 (basophils; Homo sapiens): 10 to 50 nM

CC(Nc1nc(N)nc(N)c1C#N)c1nc2cccc(Br)c2c(=O)n1-c1ccccc1 (single isomer, unassigned) [Compound 129a]
IC50 (PI3Kδ): < 1 nM
EC50 (basophils; Homo sapiens): < 1 nM

CC(Nc1nc(N)nc(N)c1C#N)c1nc2cccc(C#N)c2c(=O)n1-c1cccc(F)c1 (single isomer, unassigned) [Compound 131a]
IC50 (PI3Kδ): 1 to 10 nM
EC50 (basophils; Homo sapiens): 1 to 10 nM

CC(Nc1nc(N)nc(N)c1C#N)c1nc2cccc(Cl)c2c(=O)n1-c1cc(C(F)F)cc(C(F)F)c1 (single isomer, unassigned) [Compound 137a]
IC50 (PI3Kδ): 1 to 10 nM
EC50 (basophils): 10 to 50 nM

CC(Nc1nc(N)nc(N)c1C#N)c1nc2ccc(F)c(Cl)c2c(=O)n1-c1cc(F)cc(C(F)F)c1 (single isomer, unassigned) [Compound 141a]
IC50 (PI3Kδ): 10 to 50 nM
EC50 (basophils; Homo sapiens): 10 to 50 nM

CC(Nc1nc(N)nc(N)c1C#N)c1nc2cccc(S(C)(=O)=O)c2c(=O)n1-c1ccccc1F (single isomer, unassigned) [Compound 142a-1]
IC50 (PI3Kδ): 1 to 10 nM
EC50 (basophils; Homo sapiens): 10 to 50 nM

CC(Nc1nc(N)nc(N)c1C#N)c1nc2cccc(S(C)(=O)=O)c2c(=O)n1-c1ccccc1F (single isomer, unassigned) [Compound 142a-2]
IC50 (PI3Kδ): 1 to 10 nM
EC50 (basophils): 10 to 50 nM

CC(Nc1nc(N)nc(N)c1C#N)c1nc2cccc(S(C)(=O)=O)c2c(=O)n1-c1c(F)cccc1F (single isomer, unassigned) [Compound 146a]
IC50 (PI3Kδ): 1 to 10 nM
EC50 (basophils; Homo sapiens): > 50 nM

CC(Nc1nc(N)nc(N)c1C#N)c1nc2c(F)ccc(F)c2c(=O)n1-c1cccc(F)c1 (single isomer, unassigned) [Compound 148a]
IC50 (PI3Kδ): 1 to 10 nM
EC50 (basophils; Homo sapiens): < 1 nM

CC(Nc1nc(N)nc(N)c1Cl)c1nc2cccc(S(C)(=O)=O)c2c(=O)n1-c1cccc(F)c1 (single isomer, unassigned) [Compound 153a]
IC50 (PI3Kδ): 1 to 10 nM
EC50 (basophils; Homo sapiens): 10 to 50 nM

COc1cccc2c(=O)n(-c3ccccc3)c(C(C)Nc3nc(N)nc(N)c3C#N)nc12 (single isomer, unassigned) [Compound 156a]
IC50 (PI3Kδ): > 50 nM
EC50 (basophils; Homo sapiens): 10 to 50 nM

CC(Nc1nc(N)nc(N)c1C#N)c1nc2c(C#N)cc(F)cc2c(=O)n1-c1cc(F)cc(F)c1 (single isomer, unassigned) [Compound 161a]
IC50 (PI3Kδ): 10 to 50 nM
EC50 (basophils; Homo sapiens): 10 to 50 nM

CC(C)CC(Nc1nc(N)nc(N)c1C#N)c1nc2cccc(Cl)c2c(=O)n1-c1cccc(C#N)c1 (single isomer, unassigned) [Compound 167a]
IC50 (PI3Kδ): 10 to 50 nM
EC50 (basophils; Homo sapiens): > 50 nM

CC(C)CC(Nc1nc(N)nc(N)c1C#N)c1nc2cccc(Cl)c2c(=O)n1-c1cccc(F)c1 (single isomer, unassigned) [Compound 168a]
IC50 (PI3Kδ): 1 to 10 nM
EC50 (basophils; Homo sapiens): > 50 nM

COc1cc(-n2c(C(C)Nc3nc(N)nc(N)c3C#N)nc3cccc(Cl)c3c2=O)ccc1C (single isomer, unassigned) [Compound 184a]
IC50 (PI3Kδ): 10 to 50 nM
EC50 (basophils; Homo sapiens): > 50 nM

COc1cc(-n2c(C(C)Nc3nc(N)nc(N)c3C#N)nc3cccc(Cl)c3c2=O)ccc1F (single isomer, unassigned) [Compound 186a]
IC50 (PI3Kδ): 1 to 10 nM
EC50 (basophils; Homo sapiens): 10 to 50 nM
